Where two headings read alike, the source gives them in different places.
Legend:
bleomycin-treated mice = assay: Murine bleomycin model (pSMAD3, collagen deposition); type: in vivo, mice (C57BL/6)
Description: Mice (C57BL/6) were divided into healthy (n=15), vehicle-treated (n=15), and test article-treated (n=15 per dose) groups. Mice in the vehicle and test article-treated groups were administered 3 U/kg of bleomycin (Teva Pharmaceuticals; North Wales, PA) via oropharyngeal aspiration while under anesthesia on day 0. Healthy animals were administered water in a similar fashion. Starting on day 7, mice in the control group were administered PBS vehicle, 130 μL, by oral gavage, BID for 14 days. Also starting on day 7, mice in the test group were administered Compound 5 in PBS by oral gavage, BID for 14 days, at relative dosages of 1×, 2.5× and 5×. […] From day 14 through day 21, 9 of the 15 mice were administered ^2H2O for labeling. All mice were sacrificed on day 21 and tissues were collected. Samples were prepared for analysis either directly from lung tissue, or by bronchoalveolar lavage, which washes out the bronchiolar and alveolar space with saline to produce a bronchoalveolar lavage fluid (BALF) in which 80-90% of cells are alveolar macrophages.
FIGS. 4F, 4G, and 4H show high resolution second harmonic generation images of fibrillar collagen (collagen type I and III) taken from formalin-fixed paraffin embedded lung tissue sections from a healthy mouse lung (4F), a vehicle-treated mouse lung (4G) and a test-article treated mouse lung (4H; 500 mg/kg BID). Color scale is indicative of collagen fiber density (red=most dense; blue=least dense).
FIG. 41 is a graph showing the percent total collagen area in the second harmonic generation mouse lung images. Large structural areas of collagen found similarly in healthy and fibrotic tissues (dense collagen fibers surrounding airways were excluded from this analysis to focus on interstitial fibrotic collagen). […] The 1×, 2.5×, and 5× dosages were at the same absolute values in mg/kg as in Example B7.
The data for FIGS. 4J and 4K, was obtained 14 days after bleomycin challenge in mice were treated with Compound 5 at 2.5× dose (PO, BID for 1.5 days).

lung Col1a1 expression = assay: Precision cut lung slices, chronic bleomycin exposure, versus and with nintedanib and pirfenidone; type: cell-based, mice (C57BL/6); conditions: chronic bleomycin PCLS; for lung slice Col1a1 expression vs DMSO vehicle control slices: 7 days
Description: Mice (C57BL/6) were administered 3 U/kg of bleomycin (Teva Pharmaceuticals; North Wales, PA) on Day 0 and 1 U/kg of bleomycin on days 14, 28, 42 and 56 via oropharyngeal aspiration while under anesthesia. At day 70, 14 days following the final bleomycin insult, precision cut lung slices were obtained. […] The lobes were then subjected to precision slicing to obtain samples for culture using a microtome (Compresstome VF-300-OZ, Precisionary; Greenville, NC). Individual slices were distributed in a multiwell culture plate and cultured for 7 days under control (DMSO) and test compound conditions. The viability of the slices over the course of culturing was confirmed by WST-1 assay of mitochondrial activity. During the culture period, slices in the control group were treated with DMSO and slices in the test group were treated with a DMSO solution of one of: […]

[1] = SAD and MAD first-in-human pharmacokinetic studies; type: in vivo; conditions: SAD study, 75 mg oral solution, healthy human subjects; for AUC(0-t): human, po, 75 mg
Description: Healthy human subjects (N=85) were selected for single ascending dose (SAD) and multiple ascending dose (MAD) first-in-human studies. A solution for oral administration was prepared, containing 10 mg/mL of Compound 5 in a 50:50 mixture of […], Michigan) and sterile water for irrigation. Sufficient solution was administered orally to the subjects to provide between 15 mg/dose and 75 mg/dose of Compound 5 in the SAD study and between 10 mg/dose and 40 mg/dose of Compound 5 in the MAD study. Concentrations of Compound 5 were measured in the subjects by obtaining a sample of plasma from each subject at desired intervals, and subjecting the plasma to liquid chromatography-mass spectrometry-mass spectrometry (LC-MS/MS), with quantification using a calibration curve determined from a range of solutions at standardized concentrations. The lower limit of quantitation (LLOQ) of the assay was 1 ng/mL and the calibration curve range was 1 to 500 ng/mL.

[2] = bleomycin mice, 1×, […], 5×, vs control mice

COCCN(CCCCc1ccc2c(n1)NCCC2)CC[C@H](Nc1ncnc2ccccc12)C(=O)O [Compound 5, (S)-4-((2-methoxyethyl) (4-(5,6,7,8-tetrahydro-1,8-naphthyridin-2-yl)butyl)amino)-2-(quinazolin-4-ylamino) butanoic acid]
relationship between pSMAD3 levels in lung and BALF cells vs. plasma drug exposure (bleomycin-treated mice; 14 days after bleomycin challenge, […] dose PO BID for 1.5 days): close inverse relationship | accumulated new collagen (percentage of lung collagen containing 2H-labeled hydroxyproline) (bleomycin-treated mice; bleomycin mice, 1× and 5×, vs control mice): dose-dependent reduction | percent total collagen area in second harmonic generation images (bleomycin-treated mice; [2]): substantial, statistically significant dose-dependent reduction | total pulmonary collagen (μg of hydroxyproline) (bleomycin-treated mice; [2]): reduction in total pulmonary collagen | SMAD3 phosphorylation in lung tissue (bleomycin-treated mice; bleomycin mice, oral gavage BID 14 days, 1×, […], 5× dosages, vs vehicle): substantial, statistically significant dose-dependent reductions | lung Col1a1 expression vs DMSO vehicle control slices (lung Col1a1 expression; 7 days culture, single agents): substantial, statistically significant (p<0.01 vs vehicle) decrease | lung slice Col1a1 expression vs DMSO vehicle control slices (lung Col1a1 expression; in combination with nintedanib): substantial, statistically significant (p<0.01 vs vehicle) decrease | lung slice Col1a1 expression vs DMSO vehicle control slices (lung Col1a1 expression; in combination with pirfenidone): substantial, statistically significant (p<0.01 vs vehicle) decrease | Thalf [1]: 20.0 ± 3.6 h | AUC(0-t) ([1]; plasma, read-out: AUC0-24): 19700 ± 10900 ng·h/mL | AUC(0-t) ([1]; plasma, read-out: AUC0-48): 22500 ± 15700 ng·h/mL | Cmax ([1]; plasma): 1870 ± 1240 ng/mL | Tmax ([1]; plasma): 2.9 ± 1 h
